# Test results as given in patent US9757400B2, “Peptidomimetic inhibitors of post-proline cleaving enzymes” (Trustees of Tufts College, priority 2001, dated 2017).
# Assays:
# [1] = Cyclization equilibrium, ratio of [cyclic]:[open] forms; type: physicochemical; details: at equilibrium at pH 7.0
# Description: In this example, Xaa-boro-Ala analogs containing bulky R substituent will be constructed to prevent cyclization and increase biological activity. […] The open, active, inhibitory chain species is favored at low pH while the cyclized structure is favored at high pH. Also, the reaction is fully reversible: the open chain becomes predominate at low pH. The open chain to cyclic species reaction involves a trans to cis isomerization of the proline and the formation of a new N—B bond. […] This means that less than 1% Pro-boroPro and less than 0.1% of Val-boroPro exists as the open chain, inhibitory species, at equilibrium at pH 7.0.
# One feature of the present invention relates to the equilibrium constant for cyclization. […] In addition, the cis-trans isomerization rate, and therefore the rates of cyclization and uncyclization, are also much faster for compounds of the present invention. This feature is attributed by the inventors to a bulky substituent effect, e.g. where R in FIG. 8 represents a cyclohexyl.
# DPPIV [2] = target: T1, DPPIV (Rattus norvegicus, UniProt P14740); test: DPPIV assays on serum samples from treated rats; type: in vivo; details: 1 hour after treatment versus before
# T1 construct: from tissue; host or cells: rat serum
# T1 sequence (P14740 37-767 limits assumed): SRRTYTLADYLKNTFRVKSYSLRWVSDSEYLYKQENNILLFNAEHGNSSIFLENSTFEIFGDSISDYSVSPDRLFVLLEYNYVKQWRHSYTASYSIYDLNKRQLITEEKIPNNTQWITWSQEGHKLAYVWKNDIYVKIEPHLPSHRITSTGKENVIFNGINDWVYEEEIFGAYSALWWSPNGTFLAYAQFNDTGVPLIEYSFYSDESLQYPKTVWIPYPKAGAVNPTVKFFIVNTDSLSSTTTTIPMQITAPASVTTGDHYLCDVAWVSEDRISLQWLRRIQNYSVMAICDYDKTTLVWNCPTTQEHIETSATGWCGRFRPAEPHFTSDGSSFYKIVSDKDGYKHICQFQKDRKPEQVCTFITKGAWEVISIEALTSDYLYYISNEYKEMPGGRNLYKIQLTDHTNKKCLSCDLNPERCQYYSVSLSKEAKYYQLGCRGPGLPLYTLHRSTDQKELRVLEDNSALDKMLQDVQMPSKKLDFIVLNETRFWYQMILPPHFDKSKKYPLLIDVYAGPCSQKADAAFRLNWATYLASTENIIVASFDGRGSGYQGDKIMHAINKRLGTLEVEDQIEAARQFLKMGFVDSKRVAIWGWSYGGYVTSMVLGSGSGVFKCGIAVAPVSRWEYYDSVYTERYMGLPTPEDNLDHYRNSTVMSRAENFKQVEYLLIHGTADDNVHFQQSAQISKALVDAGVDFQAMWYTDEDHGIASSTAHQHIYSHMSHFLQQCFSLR
# Experimental: Four rats were used in this experiment: two females (#3 and #9) and two males (#10 and #11). Blood and plasma samples were collected from rats 1 hour after being treated with Cyclohexylglycine-boroAla. The collected serum samples were evaluated for DPPIV activity of Cyclohexylglycine-boroAla as follows: • 2 mg of Ala-Pro-paranitroanalide (substrate) was dissolved in 20 ml 0.1 M HEPES pH 8, 0.14 M NaCl (buffer). • Serum samples were diluted into substrate solution in the wells of a microtiter plate. For each sample, 10 uL of serum was diluted into 150 μL of substrate. • A reading of the A410 in each well was recorded immediately after the dilution of serum into substrate, and again after approximately 1 hour. The time of data acquisition for each reading is recorded in the data file by the microplate reader software.
# The rate of absorbance change was obtained by subtracting the first reading from the second and dividing by the reaction time to give DeltaA410/hr. The DPPIV activity was plotted in units of DeltaA410 hr^−1 μL^−1.
# zucker obese rats = test: Oral glucose tolerance test (oral glucose challenge) in zucker rats; type: in vivo, rat; details: oral 0.035 mg/kg or 0.35 mg/kg, oral glucose tolerance test within an hour, saline control
# Experimental: In these “acute” experiments zucker obese and zucker lean rats were orally administered either 0.035 mg/kg (low dose) or 0.35 mg/kg (high dose) of cyclohexyl-gly boro ala and then subjected to an oral glucose tolerance test within an hour. Each set of experiments was also performed using saline as a control.
# DPPIV [3] = target: DPPIV (Homo sapiens, UniProt P27487); test: Inhibitor inactivation at pH 8 (time course, DPPIV inhibition read-out); type: biochemical; details: pre-incubated at pH 8 (7.5-8) for 0, 60, 120, 180 minutes; compared with His-bAla, Ala-bAla, Phg-bAla
# Sequence of DPPIV (Homo sapiens, UniProt P27487) (P27487 whole entry, species assumed): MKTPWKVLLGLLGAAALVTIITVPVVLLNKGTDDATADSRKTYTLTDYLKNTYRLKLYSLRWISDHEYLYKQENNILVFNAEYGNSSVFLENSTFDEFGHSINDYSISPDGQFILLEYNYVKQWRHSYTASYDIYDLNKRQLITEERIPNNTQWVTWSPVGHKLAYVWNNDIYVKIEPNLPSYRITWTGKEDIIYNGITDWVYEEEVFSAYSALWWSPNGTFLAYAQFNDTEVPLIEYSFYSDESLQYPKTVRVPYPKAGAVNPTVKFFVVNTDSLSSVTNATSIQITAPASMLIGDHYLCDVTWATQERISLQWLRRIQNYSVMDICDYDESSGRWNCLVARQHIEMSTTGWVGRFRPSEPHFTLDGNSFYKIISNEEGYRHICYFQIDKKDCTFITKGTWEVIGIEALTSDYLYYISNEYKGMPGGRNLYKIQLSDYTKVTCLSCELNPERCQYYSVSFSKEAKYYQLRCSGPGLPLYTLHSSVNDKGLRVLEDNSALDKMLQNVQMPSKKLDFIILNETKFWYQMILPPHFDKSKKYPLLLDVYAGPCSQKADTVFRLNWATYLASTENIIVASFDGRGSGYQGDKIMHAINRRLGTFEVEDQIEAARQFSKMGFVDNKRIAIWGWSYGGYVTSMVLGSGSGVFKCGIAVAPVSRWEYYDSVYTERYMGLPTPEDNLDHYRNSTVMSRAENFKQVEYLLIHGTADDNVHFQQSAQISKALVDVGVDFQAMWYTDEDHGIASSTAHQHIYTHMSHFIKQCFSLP
# Experimental: In this experiment stock solutions of inhibitors (His-bAla, Ala-bAla, Phg-bAla and Cyclohexylglycine-bAla) were prepared at pH 1-2. These stock solutions were pre-incubated at pH 8 as follows: first, 1:10 dilutions into a buffer (0.1 M HEPES pH 8, 0.14 M NaCl) were performed; secondly, the pH was measured after dilution and varied for different inhibitors between 7.5 and 8; and thirdly, incubations at this pH were performed for 0, 60, 120, 180 minutes. Following incubation, 1:10 serial dilutions of inhibitors in buffer and 1:10 dilution of inhibitors into Enzyme (DPPIV) in buffer were made. The inhibitors were pre-incubated with enzyme for 10 minutes to account for slow binding and substrate (H-Ala-Pro-paranitoranalide) was added at a concentration of approx.=KM (17 μM). Absorbances at 410 nm were recorded for all inhibitors after 30 minutes.
# [4] = pH around neutral, due to cyclization, inventors' previous work; cited from earlier work
# soluble DPIV = soluble DPIV (Homo sapiens, UniProt P27487); details: inventors' previous work; cited from earlier work
# Sequence of soluble DPIV (P27487 39-766 limits assumed): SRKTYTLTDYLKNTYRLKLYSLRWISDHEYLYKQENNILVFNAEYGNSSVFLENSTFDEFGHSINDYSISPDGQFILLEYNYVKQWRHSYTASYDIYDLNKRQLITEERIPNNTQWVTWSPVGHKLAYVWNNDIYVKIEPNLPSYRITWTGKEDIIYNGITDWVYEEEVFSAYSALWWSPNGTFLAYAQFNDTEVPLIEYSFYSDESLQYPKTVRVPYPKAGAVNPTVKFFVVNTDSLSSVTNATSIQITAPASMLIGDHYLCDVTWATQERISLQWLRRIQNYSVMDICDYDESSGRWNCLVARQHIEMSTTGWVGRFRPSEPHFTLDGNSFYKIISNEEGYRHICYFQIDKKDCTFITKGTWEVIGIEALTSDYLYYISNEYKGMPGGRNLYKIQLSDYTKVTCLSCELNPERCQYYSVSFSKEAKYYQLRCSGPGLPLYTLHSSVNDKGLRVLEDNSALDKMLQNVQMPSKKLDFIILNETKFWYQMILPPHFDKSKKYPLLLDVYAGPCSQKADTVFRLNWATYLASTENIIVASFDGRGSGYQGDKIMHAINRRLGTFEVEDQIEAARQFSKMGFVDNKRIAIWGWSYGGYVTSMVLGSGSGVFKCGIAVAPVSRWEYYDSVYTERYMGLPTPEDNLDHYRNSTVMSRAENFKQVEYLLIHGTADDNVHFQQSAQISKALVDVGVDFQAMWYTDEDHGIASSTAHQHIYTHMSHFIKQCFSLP
SMILES,"fraction existing as the open chain, inhibitory species [1]",loss of inhibitory activity in aqueous solution [4],further results
O=C(C1CCCN1)N1CCCC1B(O)O (centres unmarked) [Pro-boroPro],less than 1%,–,–
"CC(NC(=O)C(N)C1CCCCC1)B(O)O (centres unmarked) [Cyclohexylglycine-boroAla, Cyclohexylglycine boroAla]",–,–,DPPIV enzyme activity in serum (DPPIV [2]): significantly decreased; blood sugar in oral glucose challenge after oral administration (zucker obese rats): orally active and clearly lowers blood sugar; pH-time dependant inhibition (inactivation at pH 8) (DPPIV [3]): does not show significant pH-time dependant inhibition
"O=C(C1CCCN1)N1CCCC1B(O)O [L-Pro-D,L-boroPro]",–,lost some of their inhibitory activity rapidly,inhibition of the catalytic activity of soluble DPIV (soluble DPIV): potent inhibitors
"CC(N)C(=O)N1CCCC1B(O)O [L-Ala-D,L-boroPro]",–,lost some of their inhibitory activity rapidly,–
CC(C)[C@H](N)C(=O)N1CCC[C@H]1B(O)O [Val-boroPro],less than 0.1%,–,–
